From patent US9393249B2, “Antimicrobial composition” (INSTITUTE OF TECHNOLOGY SLIGO, priority 2008, dated 2016)

Columns and labels:
[1] = test system: Candida albicans; test: Well/disc diffusion inhibition assay of combinations; format: cell-based; settings: 50 μl A^3IS + 50 μg agent versus 100 μl A^3IS alone; FIG. 19
Procedure: Various combinations of A^3IS (from Example 3) and antibiotics/antifungal agents were tested against a placebo and A^3IS alone using a well/disc diffusion method. […] Well/Disc Diffusion Methods for Measurement of Microbial Inhibition: Agar plates were inoculated by swabbing overnight culture onto the plate surface. Plates were allowed to stand at room temperature for 15 minutes before use. Wells 8.2 mm diameter were bored into the surface of the agar. 100 μl of samples (a) to (c) was placed into each well. The samples diffuse into the agar around the well and are assayed for an ability to produce a zone of inhibition. Plates are incubated for 24, 48 or 72 hrs and zones of inhibition are measured. The diameter of zones, including the diameter of the well (8.2 mm) was recorded.

[2] = test system: L929 cells; test: ISO 10993-5 agar overlay cytotoxicity (neutral red); settings: 24 hrs
Procedure: ISO 10993, agar overlay tests for cytotoxicity: in vitro method is also used, employing L929 cells (mouse fibroblasts ECACC 85011425). In brief; a confluent monolayer of cells is incubated, this is then covered with a layer fresh medium (EMEM, 2 mM L-Glutamine, 5% FBS, 2% Penicillin-Streptomycin) containing 1.5 g/l of soft agar and allowed to solidify. One tenth of the surface is covered with test materials (previously described) and incubated for 24 hrs. Post incubation the test material is carefully removed and a vital stain (neutral red) in fresh media added. After incubation this is removed, the cells washed and then the dye extracted from the cells and quantified spectrophotometrically for cell viability.
Percent toxicity was calculated according to the formula: % Toxicity=1−(OD average of test material wells/average OD of corresponding control wells (sodium azide added))×100. Included in the assay are a 50% concentration of A^3IS, a range of concentrations of commercial silver containing gel and commercial zinc containing gel product, compared to sodium azide (positive control). […] For the agar overlay toxicity assay the amount of test materials used was similar to that used for the initial direct contact assays of 100 mg per well however the contact time was extended to 24 hrs.

[3] = test system: clinical isolates of Mastitis causing Staphylococcus aureus; test: Inhibition assay (3 day repeats) on mastitis clinical isolates; format: cell-based; settings: FIG. 11b
Procedure: • Escherichia coli (NCIMB 8545), Staphylococcus aureus (NCIMB 9518) and Pseudomonas aeruginosa (NCIMB 8626) are grown on nutrient agar or in nutrient broth for 24 hrs at 37° C. • Candida albicans (NCIMB 3179) and Saccharomyces cerevisiae are grown on sabaroud dextrose agar or in sabaroud dextrose broth for 24 hrs at 37° C. • Propionibacterium acnes (P. acnes ATCC/NTC 11827) is grown anaerobically on blood agar or in nutrient broth for 72 hrs at 37° C. • 22 isolates of Staphylococcus aureus from clinical mastitis obtained from Sligo regional Veterinary Laboratories are grown on nutrient agar or in nutrient broth for 24 hrs at 37° C. • For testing conducted in the Sligo Regional General Hospital; five Beta haemolytic Streptococci Group A clinical isolates are grown on blood agar or in nutrient broth for 24 hrs at 37° C. • Campylobacter coli (NCTC 11366) is grown on brain heart infusion agar or in brain heart infusion broth for 72 hrs at 37° C. • Campylobacter jejuni (NCTC 11322) and three clinical isolates are grown on brain heart infusion agar or in brain heart infusion broth for 72 hrs at 37° C. • MRSA (ATCC 43300) and seven clinical isolates are grown on nutrient agar or in brain heart infusion broth for 72 hrs at 37° C. • Laboratory mould isolates are grown on sabaroud dextrose agar or in sabaroud dextrose broth for 48 hrs at 25° C. • Botrytis cinerea is grown on sabaroud dextrose agar or in sabaroud dextrose broth for 48 hrs at 25° C.
Agar plates are inoculated by swabbing overnight culture onto the plate surface. Plates are allowed to stand at room temperature for 15 minutes before use. Wells 8.2 mm diameter are bored into the surface of the agar. One hundred and eighty μl of sample is placed into each well. The samples diffuse into the agar around the well and are assayed for an ability to produce a zone of inhibition. Plates are incubated for 24, 48 or 72 hrs and zones of inhibition are measured using an Autodata automatic zone reader. The diameter of zones, including the diameter of the well (8.2 mm), is recorded. […]

[4] = test system: S. aureus NCIMB 9587; test: Checkerboard synergy test; format: cell-based, Staphylococcus aureus; settings: MIC as two-fold dilution fraction of each agent's final dilution (A^3IS 3%; antibiotics 1:100 to 1:3,200,000); overnight 35° C.
Procedure: Stock solutions were prepared according to published standards (CLSI (Clinical and Laboratory Standards Institute): Performance Standards for Antimicrobial Susceptibility testing. Fifteenth Informational Supplement. CLSI document M100-S15. Pennsylvania USA 2005, 19087-1898)
Synergy tests were performed in 96-well microtiter plates containing the A^3IS (from Example 3)/antibiotic combinations in two fold dilutions dispensed in a checkerboard fashion on the day of the assay. Each well contained 0.1 mL of A^3IS/antimicrobial combinations. A suspension of S. aureus test culture was prepared from an overnight broth culture to yield a final inoculum of approximately 3×10^5 to 5×10^5 CFU/mL. Twenty microliters of this suspension was added to all but the sterility control wells. MICs were read after overnight incubation at 35° C. Growth and sterility controls were included in each plate. Each isolate was tested twice. Growth was determined by visually examining each well for evidence of turbidity.
For the first clear well in each row of the microtiter plate containing both antimicrobial agents, the fractional inhibitory concentration (FIC) was calculated as follows: FIC of drug A (FICA)=MIC of drug A in combination/MIC of drug A alone, and the FIC of drug B (FICB)=MIC of drug B in combination/MIC of drug B alone.

Cc1cc(C2CCCCC2)n(O)c(=O)c1.NCCO [Cyclopiroxalomine]
effect of combination with hydrogen peroxide source (zone of inhibition) [1]: effects going beyond a combination/additive effects with hydrogen peroxide

[N-]=[N+]=[N-] [sodium azide]
% Toxicity [2]: 100%

CN(C/C=C/C#CC(C)(C)C)Cc1cccc2ccccc12 [Terbidifine]
effect of combination with hydrogen peroxide source (zone of inhibition) [1]: effects going beyond a combination/additive effects with hydrogen peroxide

CC(=O)N1CCN(c2ccc(OCC3COC(Cn4ccnc4)(c4ccc(Cl)cc4Cl)O3)cc2)CC1 (centres unmarked) [Ketoconazole]
effect of combination with hydrogen peroxide source (zone of inhibition) [1]: effects going beyond a combination/additive effects with hydrogen peroxide

CN[C@H](CC(C)C)C(=O)N[C@H]1C(=O)N[C@@H](CC(N)=O)C(=O)N[C@H]2C(=O)N[C@H]3C(=O)N[C@H](C(=O)N[C@H](C(=O)O)c4cc(O)cc(O)c4-c4cc3ccc4O)[C@H](O)c3ccc(c(Cl)c3)Oc3cc2cc(c3O[C@@H]2O[C@H](CO)[C@@H](O)[C@H](O)[C@H]2O[C@H]2C[C@](C)(N)[C@H](O)[C@H](C)O2)Oc2ccc(cc2Cl)[C@H]1O [Vancomycin]
sensitivity of clinical isolate number 15 [3]: resistant

CO/N=C(\C(=O)N[C@@H]1C(=O)N2C(C(=O)O)=C(COC(N)=O)CS[C@H]12)c1ccco1 [Zinacef, Cefuroxime]
MICs for A^3IS & antibiotics on S. aureus NCIMB 9587 [4]: ½

Cc1onc(-c2c(F)cccc2Cl)c1C(=O)N[C@@H]1C(=O)N2[C@@H]1SC(C)(C)[C@@H]2C(=O)O [Flucloxacillin]
MICs for A^3IS & antibiotics on S. aureus NCIMB 9587 [4]: ½

CC1=C(C(=O)O)N2C(=O)[C@@H](NC(=O)[C@H](N)C3=CCC=CC3)[C@H]2SC1 [Velocef, Cefradine]
MICs for A^3IS & antibiotics on S. aureus NCIMB 9587 [4]: ¼

CC1(C)S[C@@H]2[C@H](NC(=O)[C@H](N)c3ccc(O)cc3)C(=O)N2[C@H]1C(=O)O [Amoxicillin]
MICs for A^3IS & antibiotics on S. aureus NCIMB 9587 [4]: ¼

[H]/N=C(/N)N[C@H]1[C@H](O)[C@@H](O)[C@H](O[C@@H]2O[C@@H](C)[C@](O)(C=O)[C@H]2O[C@@H]2O[C@@H](CO)[C@H](O)[C@@H](O)[C@@H]2NC)[C@@H](N/C(N)=N\[H])[C@@H]1O [Streptomycin]
sensitivity of clinical isolate number 15 [3]: resistant

Clc1ccccc1C(c1ccccc1)(c1ccccc1)n1ccnc1 [Clotrimazole]
effect of combination with hydrogen peroxide source (zone of inhibition) [1]: effects going beyond a combination/additive effects with hydrogen peroxide

CC[C@H]1OC(=O)[C@H](C)[C@@H](O[C@H]2C[C@@](C)(OC)[C@@H](O)[C@H](C)O2)[C@H](C)[C@@H](O[C@@H]2O[C@H](C)C[C@H](N(C)C)[C@H]2O)[C@](C)(OC)C[C@@H](C)C(=O)[C@H](C)[C@@H](O)[C@]1(C)O [KIacid]
MICs for A^3IS & antibiotics on S. aureus NCIMB 9587 [4]: ½

O=C(N[C@H](CO)[C@H](O)c1ccc([N+](=O)[O-])cc1)C(Cl)Cl [Chloramphenicol]
sensitivity of clinical isolate number 15 [3]: only mild sensitivity

CC[C@H]1OC(=O)[C@H](C)[C@@H](O[C@H]2C[C@@](C)(OC)[C@@H](O)[C@H](C)O2)[C@H](C)[C@@H](O[C@@H]2O[C@H](C)C[C@H](N(C)C)[C@H]2O)[C@](C)(O)C[C@@H](C)C(=O)[C@H](C)[C@@H](O)[C@]1(C)O [Erythrocin]
MICs for A^3IS & antibiotics on S. aureus NCIMB 9587 [4]: ½
